Measured values as given in ChEMBL document CHEMBL1201862, “PubChem BioAssay data set” (2004).
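Exposure lasted 48 hours, with cells grown in 96-well plates and compounds tested at five concentrations. GI50: concentration for 50% inhibition of growth.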 Active and inactive are the calls of the source. Cut-off read from the data, not from the text of the source: active = GI50 up to about 1.1 µM and inactive = higher.

Assays:
Assay in all cases: inhibition of tumour cell growth, NCI panel, 48 h
[1] = system: HT-29
[2] = system: XF498
[3] = system: A549
[4] = system: ACHN
[5] = system: SF-268
[6] = system: DMS-273
[7] = system: KM12
[8] = system: RPMI-8226
[9] = system: LXFL 529
[10] = system: HCT-15
[11] = system: COLO 205
[12] = system: UACC-62
[13] = system: SK-OV-3
[14] = system: A498
[15] = system: OVCAR-5
[16] = system: OVCAR-8
[17] = system: SW-620
[18] = system: SNB-75
[19] = system: SR
[20] = system: NCI-H522
[21] = system: K562
[22] = system: U-251
[23] = system: M19-MEL
[24] = system: HOP-18
[25] = system: TK-10
[26] = system: KM-20L2
[27] = system: Malme-3M
[28] = system: SNB-78
[29] = system: HCT-116
[30] = system: SNB-19
[31] = system: SN12C
[32] = system: UACC-257
[33] = system: MOLT-4
[34] = system: EKVX
[35] = system: HOP-62
[36] = system: NCI-H460
[37] = system: HL-60
[38] = system: SK-MEL-5
[39] = system: SK-MEL-2
[40] = system: LOX IMVI
[41] = system: M14
[42] = system: OVCAR-3
[43] = system: IGROV-1
[44] = system: SK-MEL-28
[45] = system: RXF 393
[46] = system: SF-539
[47] = system: 786-0
[48] = system: DLD-1
[49] = system: CCRF-CEM
[50] = system: HOP-92
[51] = system: DMS-114
[52] = system: UO-31
[53] = system: NCI-H226
[54] = system: OVCAR-4
[55] = system: HCC 2998
[56] = system: SF-295
[57] = system: NCI-H23
[58] = system: CAKI-1
[59] = system: RXF 631

Cc1cc(Cl)cc2c1NC(=O)C2(O)C(C)C(=O)c1ccc(Cl)cc1 (stereo not drawn)
GI50 [1]: > 83.2 µM (inactive)
GI50 [2]: 42.6 µM (inactive)
GI50 [3]: > 100 µM (inactive)
GI50 [4]: > 100 µM (inactive)
GI50 [5]: > 71.9 µM (inactive)
GI50 [6]: > 83.2 µM (inactive)
GI50 [7]: 99.1 µM (inactive)
GI50 [8]: 31.8 µM (inactive)
GI50 [9]: > 66.5 µM (inactive)
GI50 [10]: > 89.1 µM
GI50 [11]: 97.1 µM (inactive)
GI50 [12]: 20.2 µM (inactive)
GI50 [13]: > 100 µM (inactive)
GI50 [14]: > 57.7 µM (inactive)
GI50 [15]: > 100 µM (inactive)
GI50 [16]: > 85.9 µM (inactive)
GI50 [17]: > 74.8 µM (inactive)
GI50 [18]: > 59.3 µM (inactive)
GI50 [19]: > 66.2 µM (inactive)
GI50 [20]: 39.9 µM (inactive)
GI50 [21]: > 58.9 µM (inactive)
GI50 [22]: 72.4 µM (inactive)
GI50 [23]: 12.8 µM (inactive)
GI50 [24]: > 92.9 µM (inactive)
GI50 [25]: > 100 µM (inactive)
GI50 [26]: > 100 µM (inactive)
GI50 [27]: > 61.7 µM (inactive)
GI50 [28]: > 66.2 µM (inactive)
GI50 [29]: > 74.1 µM (inactive)
GI50 [30]: > 100 µM (inactive)
GI50 [31]: > 74.1 µM (inactive)
GI50 [32]: 42.6 µM (inactive)
GI50 [33]: 28.4 µM (inactive)
GI50 [34]: > 81.5 µM (inactive)
GI50 [35]: > 100 µM (inactive)
GI50 [36]: > 100 µM (inactive)
GI50 [37]: 3.15 µM (inactive)
GI50 [38]: 27.7 µM (inactive)
GI50 [39]: > 100 µM (inactive)
GI50 [40]: > 100 µM (inactive)
GI50 [41]: > 100 µM (inactive)
GI50 [42]: 49.9 µM (inactive)
GI50 [43]: > 81.3 µM (inactive)
GI50 [44]: > 62.1 µM (inactive)
GI50 [45]: 47.8 µM (inactive)
GI50 [46]: > 62.1 µM (inactive)
GI50 [47]: 85.7 µM (inactive)
GI50 [48]: > 61.2 µM (inactive)
GI50 [49]: 30.2 µM (inactive)
GI50 [50]: 33.9 µM (inactive)
GI50 [51]: 37.3 µM (inactive)
GI50 [52]: > 100 µM (inactive)
GI50 [53]: > 60.1 µM (inactive)
GI50 [54]: 21.8 µM (inactive)
GI50 [55]: > 100 µM (inactive)
GI50 [56]: > 92.5 µM (inactive)
GI50 [57]: > 72.1 µM (inactive)
GI50 [58]: > 92.5 µM (inactive)

COC(=O)CC(C(C(=O)OCc1ccccc1)C(C)O)N1C(=O)OC(c2ccccc2)C1c1ccccc1 (stereo not drawn)
GI50 [1]: > 100 µM (inactive)
GI50 [2]: 24.9 µM (inactive)
GI50 [3]: 95.5 µM (inactive)
GI50 [4]: > 100 µM (inactive)
GI50 [5]: > 100 µM (inactive)
GI50 [6]: > 100 µM (inactive)
GI50 [8]: 62.7 µM (inactive)
GI50 [9]: > 100 µM (inactive)
GI50 [10]: > 100 µM
GI50 [11]: > 100 µM (inactive)
GI50 [12]: 52 µM (inactive)
GI50 [14]: > 100 µM (inactive)
GI50 [16]: > 100 µM (inactive)
GI50 [17]: > 100 µM (inactive)
GI50 [59]: > 100 µM (inactive)
GI50 [19]: 81.5 µM (inactive)
GI50 [21]: 81.1 µM (inactive)
GI50 [22]: > 100 µM (inactive)
GI50 [23]: > 100 µM (inactive)
GI50 [25]: > 100 µM (inactive)
GI50 [26]: > 100 µM (inactive)
GI50 [27]: > 100 µM (inactive)
GI50 [29]: > 100 µM (inactive)
GI50 [30]: > 100 µM (inactive)
GI50 [31]: > 100 µM (inactive)
GI50 [32]: > 100 µM (inactive)
GI50 [33]: 44.2 µM (inactive)
GI50 [34]: > 100 µM (inactive)
GI50 [35]: > 100 µM (inactive)
GI50 [36]: > 100 µM (inactive)
GI50 [37]: > 100 µM (inactive)
GI50 [38]: 74 µM (inactive)
GI50 [39]: > 100 µM (inactive)
GI50 [40]: > 100 µM (inactive)
GI50 [41]: > 100 µM (inactive)
GI50 [42]: > 100 µM (inactive)
GI50 [43]: > 100 µM (inactive)
GI50 [44]: > 100 µM (inactive)
GI50 [45]: > 100 µM (inactive)
GI50 [46]: > 100 µM (inactive)
GI50 [47]: > 100 µM (inactive)
GI50 [48]: > 100 µM (inactive)
GI50 [49]: > 100 µM (inactive)
GI50 [51]: 81.5 µM (inactive)
GI50 [52]: 48.9 µM (inactive)
GI50 [53]: > 100 µM (inactive)
GI50 [54]: > 100 µM (inactive)
GI50 [55]: > 100 µM (inactive)
GI50 [56]: 64.6 µM (inactive)
GI50 [57]: > 100 µM (inactive)
